≈ marks a conversion by molar mass, not a printed value. Read-outs that look alike come from different tables or passages of the source.
Columns and labels:
E. faecalis ATCC 29212 = experiment: microbe, parasite or virus in culture; conditions: Enterococcus faecalis, ATCC29212
E. faecium BAA-2318 = experiment: microbe, parasite or virus in culture; format: cell-based; conditions: Enterococcus faecium, BAA2318
Description: (§1) The same MIC assay as in Example 6 was used to determine the antimicrobial susceptibility of Compound A, L-form (FIG. 15), and several variants. One variant was Compound A, D-form, with D-Lysine at position 7. Compound B is a variant in the fatty acid chain, with a fatty acid chain composition of C15H29O, and having D-Lys at position 7. Compound C is a variant in the fatty acid chain with a fatty acid chain composition of C11H21O, and having D-Lys at position 7. Variant D is a sequence variant with Phe at position 6 of the cyclic peptide, and having D-Lys at position 7. All variants were chemically synthesized.

E. faecium ATCC 700221 = experiment: microbe, parasite or virus in culture; format: cell-based; conditions: Enterococcus faecium, ATCC700221
Description: as §1

E. faecium ATCC 2320 = experiment: microbe, parasite or virus in culture; format: cell-based; conditions: Enterococcus faecium, ATCC2320
Description: as §1

S. aureus 14 = experiment: microbe, parasite or virus in culture; format: cell-based, Staphylococcus aureus
Description: as §1

S. aureus 10 = experiment: microbe, parasite or virus in culture; format: cell-based, Staphylococcus aureus
Description: as §1

S. aureus 8 = experiment: microbe, parasite or virus in culture; format: cell-based, Staphylococcus aureus
Description: as §1

S. aureus 6 = experiment: microbe, parasite or virus in culture; format: cell-based, Staphylococcus aureus
Description: as §1

S. aureus 12 = experiment: microbe, parasite or virus in culture; format: cell-based, Staphylococcus aureus
Description: as §1

S. aureus 2 = experiment: microbe, parasite or virus in culture; format: cell-based, Staphylococcus aureus
Description: as §1

S. aureus 4 = experiment: microbe, parasite or virus in culture; format: cell-based, Staphylococcus aureus
Description: as §1

S. aureus 19 = experiment: microbe, parasite or virus in culture; format: cell-based, Staphylococcus aureus
Description: as §1

[1] = system: Listeria monocytogenes R2-583; experiment: microbe, parasite or virus in culture; conditions: R2583
E. faecalis BAA-2365 = experiment: microbe, parasite or virus in culture; format: cell-based, Enterococcus faecalis; conditions: Enterococcus faecalis, BAA2365
Description: as §1

E. faecalis ATCC 51575 = experiment: microbe, parasite or virus in culture; format: cell-based, Enterococcus faecalis; conditions: Enterococcus faecalis, ATCC51575
Description: as §1

S. aureus ATCC 29213 = experiment: microbe, parasite or virus in culture; conditions: Staphylococcus aureus, ATCC29213
S. aureus ATCC25923 = experiment: microbe, parasite or virus in culture; conditions: Staphylococcus aureus
[2] = system: Enterobacter sakazakii E784; conditions: Enterobacter sakazakii E784
Salmonella Newport #17 = conditions: Salmonella Newport #17
E. coli ATCC 25853 = conditions: E. coli ATCC 25853
[3] = system: Klebsiella pneumoniae SBJ-9149; conditions: Klebsiella pneumoniae SBJ-9149 (clinical isolate)
[4] = system: Serratia marcescens SAMN 04276914; format: cell-based; conditions: Serratia marcescens SAMN 04276914
Description: as §1

[5] = system: Serratia marcescens SAMN04022954; format: cell-based; conditions: Serratia marcescens SAMN04022954
Description: as §1

[6] = system: Serratia marcescens SAMN 04276915; format: cell-based; conditions: Serratia marcescens SAMN 04276915
Description: as §1

[7] = system: Serratia marcescens SBJ-9047; format: cell-based
Description: as §1

[8] = system: Serratia marcescens SBJ-8283; format: cell-based
Description: as §1

[9] = system: Enterobacter cloacae SBJ-9395; format: cell-based
Description: as §1

[10] = system: Enterobacter cloacae SBJ-9222; conditions: Enterobacter cloacae SBJ-9222 (clinical isolate)
P. aeruginosa ATCC-27853 = conditions: P. aeruginosa ATCC-27853
[11] = system: Salmonella enterica serovar Montevideo strain 29N; experiment: Spot-on-lawn bioactivity assay (zone of inhibition); format: cell-based; conditions: 10 μL spotted on lawn of 10^6 cells of S. Montevideo strain 29N, 24 hour incubation
[12] = system: Enterobacter cloacae SBJ-7612; conditions: Enterobacter cloacae SBJ-7612 (clinical isolate)
[13] = system: Klebsiella pneumoniae SBJ-9483; conditions: Klebsiella pneumoniae SBJ-9483 (clinical isolate)
[14] = system: Klebsiella pneumoniae SBJ-9388; conditions: Klebsiella pneumoniae SBJ-9388 (clinical isolate)

With CN[C@H](CC(C)C)C(=O)N[C@H]1C(=O)N[C@@H](CC(N)=O)C(=O)N[C@H]2C(=O)N[C@H]3C(=O)N[C@H](C(=O)N[C@H](C(=O)O)c4cc(O)cc(O)c4-c4cc3ccc4O)[C@H](O)c3ccc(c(Cl)c3)Oc3cc2cc(c3O[C@@H]2O[C@H](CO)[C@@H](O)[C@H](O)[C@H]2O[C@H]2C[C@](C)(N)[C@H](O)[C@H](C)O2)Oc2ccc(cc2Cl)[C@H]1O [Vancomycin, vancomycin, reference compound] the MIC (E. faecalis ATCC 29212) was 2 µg/mL (≈ 1.38 µM), the MIC (E. faecium BAA-2318) was no less than 256 µg/mL and the MIC (E. faecium ATCC 700221) was no less than 256 µg/mL. For the same molecule, the MIC (E. faecium ATCC 2320) was no less than 256 µg/mL, the MIC (S. aureus 14; S. aureus 14 (MRSA, clinical isolate)) was 1 µg/mL (≈ 0.69 µM) and the MIC (S. aureus 14; Staphylococcus aureus, MRSA) was 1 µg/mL (≈ 0.69 µM). For the same molecule, the MIC (S. aureus 10; S. aureus 10 (MRSA, clinical isolate)) was 1 µg/mL (≈ 0.69 µM), the MIC (S. aureus 10; Staphylococcus aureus, MRSA) was 1 µg/mL (≈ 0.69 µM) and the MIC (S. aureus 8; S. aureus 8 (MRSA, clinical isolate)) was 1 µg/mL (≈ 0.69 µM). The MIC (S. aureus 8; Staphylococcus aureus, MRSA) was 1 µg/mL (≈ 0.69 µM), the MIC (S. aureus 6; S. aureus 6 (MRSA, clinical isolate)) was 1 µg/mL (≈ 0.69 µM) and the MIC (S. aureus 6; Staphylococcus aureus, MRSA) was 1 µg/mL (≈ 0.69 µM). For the same molecule, the MIC (S. aureus 12; S. aureus 12 (MRSA, clinical isolate)) was 1 µg/mL (≈ 0.69 µM), the MIC (S. aureus 12; Staphylococcus aureus, MRSA) was 1 µg/mL (≈ 0.69 µM) and the MIC (S. aureus 2; S. aureus 2 (MRSA, clinical isolate)) was 1 µg/mL (≈ 0.69 µM). The MIC (S. aureus 2; Staphylococcus aureus, MRSA) was 1 µg/mL (≈ 0.69 µM), the MIC (S. aureus 4; S. aureus 4 (MRSA, clinical isolate)) was 1 µg/mL (≈ 0.69 µM) and the MIC (S. aureus 4; Staphylococcus aureus, MRSA) was 1 µg/mL (≈ 0.69 µM). For the same molecule, the MIC (S. aureus 19; S. aureus 19 (MRSA, clinical isolate)) was 1 µg/mL (≈ 0.69 µM), the MIC (S. aureus 19; Staphylococcus aureus, MRSA) was 1 µg/mL (≈ 0.69 µM) and the MIC [1] was 1 µg/mL (≈ 0.69 µM). The MIC (E. faecalis BAA-2365) was no less than 256 µg/mL, the MIC (E. faecalis ATCC 51575) was no less than 256 µg/mL and the MIC (S. aureus ATCC 29213) was 1 µg/mL (≈ 0.69 µM). The MIC (S. aureus ATCC25923) was 1 µg/mL (≈ 0.69 µM).

In the case of Polymyxin B [reference compound], the MIC [2] is reported as 0.5 µg/mL, the MIC (Salmonella Newport #17) is reported as 1 µg/mL and the MIC (E. coli ATCC 25853) is reported as 0.5 µg/mL. It also gave an MIC [3] of 0.5 µg/mL, an MIC [4] of no less than 256 µg/mL and an MIC [5] of no less than 256 µg/mL. The MIC [6] was no less than 256 µg/mL, the MIC ([7]; Serratia marcescens SBJ-9047) was greater than 128 µg/mL and the MIC ([7]; Serratia marcescens SBJ-9047 (CRE, clinical isolate)) was greater than 128 µg/mL. It also gave an MIC ([8]; Serratia marcescens SBJ-8283) greater than 128 µg/mL, an MIC ([8]; Serratia marcescens SBJ-8283 (CRE, clinical isolate)) greater than 128 µg/mL and an MIC ([9]; Enterobacter cloacae SBJ-9395) greater than 128 µg/mL. For the same molecule, the MIC ([9]; Enterobacter cloacae SBJ-9395 (CRE, clinical isolate)) was greater than 128 µg/mL, the MIC [10] was 1 µg/mL and the MIC (P. aeruginosa ATCC-27853) was 1 µg/mL. The “minimum inhibitory concentration to show clear ZI” value [11] was 4 µg/mL, the MIC [12] was 1 µg/mL and the MIC [13] was 0.5 µg/mL. It also gave an MIC [14] of 0.5 µg/mL and an MIC (E. coli O157: H7 EDL933) of 0.5 µg/mL.
